The subject of test [1] is IGF1R. Put plainly: Kinobeads competition binding: IGF1R.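 Note: selectivity score: engagement of this protein divided by summed engagement of all targets.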 Further details: species or system human. As to conditions: target IGF1R.
Test [2] deals with MAP3K4. As to the kind of experiment: Kinobeads competition binding: MAP3K4.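 Note: target engagement share of this target among all targets at its Kdapp concentration.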 Further details: species or system human. Conditions: target MAP3K4.
Test [3] has as its system CSNK1A1. As to the kind of experiment: Kinobeads competition binding: CSNK1A1. Set-up: species or system human. Conditions: target CSNK1A1.
The test system of test [4] is MYLK3. Put plainly: Kinobeads competition binding: MYLK3.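 Note: share of all-target engagement taken by this protein at its own Kdapp concentration.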 Further details: species or system human. As to conditions: target MYLK3.
The target of test [5] is ABL1 (Homo sapiens, UniProt P00519). As to the kind of experiment: Kinobeads competition binding: ABL1.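 Note: selectivity score: engagement of this protein divided by summed engagement of all targets.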 As to conditions: target ABL1. The source says:
Supplement 41589_2023_1459_MOESM4_ESM.xlsx, sheet "CATDS matrix" | column: ABL1

The subject of test [6] is PIK3C2A. Put plainly: Kinobeads competition binding: PIK3C2A.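 Note: share of all-target engagement taken by this protein at its own Kdapp concentration.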 Further details: species or system human. As to conditions: target PIK3C2A.
For test [7], the target named is T1, PIK3CA (Homo sapiens, UniProt P42336).
T1 construct: a mixture of lysates from five cancer cell lines; endogenous in cells
T1 sequence (P42336 whole entry): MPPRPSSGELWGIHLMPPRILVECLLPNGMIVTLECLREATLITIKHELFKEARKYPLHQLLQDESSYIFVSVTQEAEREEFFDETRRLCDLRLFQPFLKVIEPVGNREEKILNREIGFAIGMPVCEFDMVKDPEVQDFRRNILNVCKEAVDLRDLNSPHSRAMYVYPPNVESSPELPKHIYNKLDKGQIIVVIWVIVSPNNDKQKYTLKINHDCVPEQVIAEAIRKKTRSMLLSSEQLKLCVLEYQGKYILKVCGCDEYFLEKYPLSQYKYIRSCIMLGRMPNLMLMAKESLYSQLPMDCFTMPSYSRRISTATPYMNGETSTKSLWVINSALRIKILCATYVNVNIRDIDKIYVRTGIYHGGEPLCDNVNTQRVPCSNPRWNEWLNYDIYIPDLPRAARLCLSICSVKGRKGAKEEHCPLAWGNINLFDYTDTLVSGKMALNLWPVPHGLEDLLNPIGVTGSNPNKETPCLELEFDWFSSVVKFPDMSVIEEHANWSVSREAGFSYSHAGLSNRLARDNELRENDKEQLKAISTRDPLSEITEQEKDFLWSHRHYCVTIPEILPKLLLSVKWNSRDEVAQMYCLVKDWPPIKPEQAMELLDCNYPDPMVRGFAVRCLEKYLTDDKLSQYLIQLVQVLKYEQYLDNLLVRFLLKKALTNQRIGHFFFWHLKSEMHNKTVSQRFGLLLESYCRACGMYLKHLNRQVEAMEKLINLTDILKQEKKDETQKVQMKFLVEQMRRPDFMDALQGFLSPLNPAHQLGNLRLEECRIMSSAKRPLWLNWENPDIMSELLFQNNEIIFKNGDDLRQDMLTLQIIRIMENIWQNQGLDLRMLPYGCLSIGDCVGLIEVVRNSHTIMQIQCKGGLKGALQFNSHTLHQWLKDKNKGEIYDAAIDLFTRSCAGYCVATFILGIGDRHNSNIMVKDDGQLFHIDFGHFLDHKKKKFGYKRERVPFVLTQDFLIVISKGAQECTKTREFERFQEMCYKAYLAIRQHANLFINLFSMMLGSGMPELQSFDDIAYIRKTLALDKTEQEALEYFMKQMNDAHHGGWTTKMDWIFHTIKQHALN
T1 sequence (P27986 whole entry partner): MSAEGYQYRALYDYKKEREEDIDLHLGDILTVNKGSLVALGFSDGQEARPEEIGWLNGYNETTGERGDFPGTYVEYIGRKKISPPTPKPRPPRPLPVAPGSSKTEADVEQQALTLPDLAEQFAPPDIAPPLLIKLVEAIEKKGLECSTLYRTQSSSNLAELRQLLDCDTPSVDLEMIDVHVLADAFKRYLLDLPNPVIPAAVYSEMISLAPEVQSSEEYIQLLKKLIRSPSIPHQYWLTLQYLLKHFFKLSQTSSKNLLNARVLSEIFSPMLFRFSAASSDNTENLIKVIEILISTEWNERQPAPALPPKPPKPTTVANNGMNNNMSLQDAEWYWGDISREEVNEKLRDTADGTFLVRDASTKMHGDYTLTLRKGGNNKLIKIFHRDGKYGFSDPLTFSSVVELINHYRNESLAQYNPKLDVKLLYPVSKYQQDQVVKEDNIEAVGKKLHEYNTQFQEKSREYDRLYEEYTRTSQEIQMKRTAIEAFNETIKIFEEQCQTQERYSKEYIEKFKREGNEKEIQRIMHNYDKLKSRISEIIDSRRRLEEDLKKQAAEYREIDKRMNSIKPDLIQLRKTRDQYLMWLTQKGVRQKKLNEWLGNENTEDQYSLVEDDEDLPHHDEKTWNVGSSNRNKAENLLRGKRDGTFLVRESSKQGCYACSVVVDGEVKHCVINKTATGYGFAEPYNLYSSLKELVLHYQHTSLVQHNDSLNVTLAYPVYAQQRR
Put plainly: Kinobeads competition binding: PIK3CA.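 Note: share of all-target engagement taken by this protein at its own Kdapp concentration.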 As to conditions: target PIK3CA. The text has this: Supplement 41589_2023_1459_MOESM4_ESM.xlsx, sheet "CATDS matrix" | column: PIK3CA

Test [8] has as its target T2, ERN2 (Homo sapiens, UniProt Q76MJ5).
T2 construct: endogenous in cells
As to the kind of experiment: Kinobeads competition binding: ERN2. As to conditions: target ERN2.

The target in test [9] is T3, HSP90B1 (Homo sapiens, UniProt P14625).
T3 construct: endogenous in cells
T3 sequence (P14625 22-803): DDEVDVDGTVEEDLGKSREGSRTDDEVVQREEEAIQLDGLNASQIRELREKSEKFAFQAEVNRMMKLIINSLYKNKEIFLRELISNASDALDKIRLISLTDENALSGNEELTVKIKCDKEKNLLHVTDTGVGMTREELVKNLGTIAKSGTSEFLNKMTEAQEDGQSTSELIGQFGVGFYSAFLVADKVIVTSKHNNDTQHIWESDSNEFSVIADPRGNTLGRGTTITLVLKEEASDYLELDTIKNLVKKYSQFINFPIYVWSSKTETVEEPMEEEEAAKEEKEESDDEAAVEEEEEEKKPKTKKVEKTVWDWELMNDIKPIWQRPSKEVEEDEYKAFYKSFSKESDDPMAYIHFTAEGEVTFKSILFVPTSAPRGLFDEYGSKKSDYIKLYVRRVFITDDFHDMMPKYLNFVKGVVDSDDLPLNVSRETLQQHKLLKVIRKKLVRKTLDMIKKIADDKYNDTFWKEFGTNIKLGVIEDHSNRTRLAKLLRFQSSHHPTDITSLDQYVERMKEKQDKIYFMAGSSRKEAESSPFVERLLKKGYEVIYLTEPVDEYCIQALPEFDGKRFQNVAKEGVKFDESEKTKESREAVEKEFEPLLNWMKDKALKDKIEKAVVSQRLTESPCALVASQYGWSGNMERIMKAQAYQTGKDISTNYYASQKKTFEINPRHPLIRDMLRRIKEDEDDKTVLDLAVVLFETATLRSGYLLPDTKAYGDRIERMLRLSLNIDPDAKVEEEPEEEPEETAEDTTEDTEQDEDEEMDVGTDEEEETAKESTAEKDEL
As to the kind of experiment: Kinobeads competition binding: HSP90B1.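 Note: share of total target engagement due to this protein at one drug concentration.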 Conditions: target HSP90B1.

Test [10] relates to ACVR2B. Put plainly: Kinobeads competition binding: ACVR2B. Set-up: species or system human. Conditions: target ACVR2B.
Test [11] addresses T4, LATS1 (Homo sapiens, UniProt O95835).
T4 construct: endogenous in cells
T4 sequence (O95835 1-1130): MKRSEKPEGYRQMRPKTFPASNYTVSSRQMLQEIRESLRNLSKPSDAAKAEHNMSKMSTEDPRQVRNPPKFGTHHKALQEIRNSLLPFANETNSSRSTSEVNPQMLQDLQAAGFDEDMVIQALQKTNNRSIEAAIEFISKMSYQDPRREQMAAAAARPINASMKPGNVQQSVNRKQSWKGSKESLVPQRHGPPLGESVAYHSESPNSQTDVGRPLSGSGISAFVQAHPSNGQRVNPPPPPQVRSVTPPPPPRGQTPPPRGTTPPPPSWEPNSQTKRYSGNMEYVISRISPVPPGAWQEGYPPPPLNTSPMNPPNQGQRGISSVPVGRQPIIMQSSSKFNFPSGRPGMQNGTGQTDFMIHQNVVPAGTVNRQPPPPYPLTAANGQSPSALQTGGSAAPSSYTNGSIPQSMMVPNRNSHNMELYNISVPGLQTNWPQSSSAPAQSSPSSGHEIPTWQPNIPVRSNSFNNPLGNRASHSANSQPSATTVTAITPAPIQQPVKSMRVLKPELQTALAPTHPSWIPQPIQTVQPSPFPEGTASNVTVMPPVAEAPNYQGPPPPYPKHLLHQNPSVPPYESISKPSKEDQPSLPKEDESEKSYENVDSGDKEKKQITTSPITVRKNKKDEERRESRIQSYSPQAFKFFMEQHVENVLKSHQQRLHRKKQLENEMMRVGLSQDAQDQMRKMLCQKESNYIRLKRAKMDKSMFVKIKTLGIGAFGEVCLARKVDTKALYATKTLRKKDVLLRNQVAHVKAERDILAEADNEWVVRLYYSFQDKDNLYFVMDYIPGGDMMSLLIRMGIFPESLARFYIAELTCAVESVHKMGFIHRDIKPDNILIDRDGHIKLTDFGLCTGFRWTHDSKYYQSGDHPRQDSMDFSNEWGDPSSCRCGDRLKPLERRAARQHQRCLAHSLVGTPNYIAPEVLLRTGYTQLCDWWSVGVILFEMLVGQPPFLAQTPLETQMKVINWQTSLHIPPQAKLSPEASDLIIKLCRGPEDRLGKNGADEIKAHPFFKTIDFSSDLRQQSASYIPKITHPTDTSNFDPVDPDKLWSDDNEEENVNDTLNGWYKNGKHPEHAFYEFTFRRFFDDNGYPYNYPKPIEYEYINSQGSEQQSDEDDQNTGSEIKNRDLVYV
Put plainly: Kinobeads competition binding: LATS1. Conditions: target LATS1. The text has this: Supplement 41589_2023_1459_MOESM4_ESM.xlsx, sheet "CATDS matrix" | column: LATS1

Test [12] relates to PIK3C2B. Put plainly: Kinobeads competition binding: PIK3C2B. As to conditions: target PIK3C2B. Further details: species or system human.
Test [13] has as its target T5, BMPR1B (Homo sapiens, UniProt O00238).
T5 construct: endogenous in cells
As to the kind of experiment: Kinobeads competition binding: BMPR1B.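 Note: selectivity score: engagement of this protein divided by summed engagement of all targets.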 As to conditions: target BMPR1B.

Test [14] has as its system IRAK3. As to the kind of experiment: Kinobeads competition binding: IRAK3. Conditions: target IRAK3. Set-up: species or system human.
Test [15] relates to JAK2. Put plainly: Kinobeads competition binding: JAK2.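 Note: target engagement share of this target among all targets at its Kdapp concentration.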 Further details: species or system human. Conditions: target JAK2.
Test [16] addresses T6, AKT3 (Homo sapiens, UniProt Q9Y243).
T6 construct: endogenous in cells
As to the kind of experiment: Kinobeads competition binding: AKT3. As to conditions: target AKT3.

The test system of test [17] is COX5A. As to the kind of experiment: Kinobeads competition binding: COX5A.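 Note: share of total target engagement due to this protein at one drug concentration.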 Conditions: target COX5A. Further details: species or system human.
For test [18], the system named is MAP2K2. As to the kind of experiment: Kinobeads competition binding: MAP2K2. Further details: species or system human. As to conditions: target MAP2K2.
Test [19] concerns HSPE1. As to the kind of experiment: Kinobeads competition binding: HSPE1. Set-up: species or system human. Conditions: target HSPE1.
Test [20] deals with T7, GSK3A (Homo sapiens, UniProt P49840).
T7 construct: endogenous in cells
As to the kind of experiment: Kinobeads competition binding: GSK3A. As to conditions: target GSK3A.

The target of test [21] is T8, CLK4 (Homo sapiens, UniProt Q9HAZ1).
T8 construct: to maximize the representation of endogenous proteins; endogenous in cells
T8 sequence (Q9HAZ1 whole entry): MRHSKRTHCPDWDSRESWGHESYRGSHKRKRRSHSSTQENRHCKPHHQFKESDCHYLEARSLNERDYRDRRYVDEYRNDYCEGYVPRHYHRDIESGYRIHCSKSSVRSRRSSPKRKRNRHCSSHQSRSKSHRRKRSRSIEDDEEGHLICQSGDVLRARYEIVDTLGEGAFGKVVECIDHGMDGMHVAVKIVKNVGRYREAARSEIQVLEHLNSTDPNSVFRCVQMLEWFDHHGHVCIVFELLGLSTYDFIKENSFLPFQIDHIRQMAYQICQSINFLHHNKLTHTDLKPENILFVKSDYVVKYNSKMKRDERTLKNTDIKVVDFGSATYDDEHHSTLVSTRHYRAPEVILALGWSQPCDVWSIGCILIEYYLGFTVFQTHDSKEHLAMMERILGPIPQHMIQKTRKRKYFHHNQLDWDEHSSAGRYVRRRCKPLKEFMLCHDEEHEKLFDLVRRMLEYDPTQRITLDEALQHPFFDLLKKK
Put plainly: Kinobeads two-dose competition binding: CLK4.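 For CATDS: target engagement share of this target among all targets at its Kdapp concentration.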 As to conditions: for CATDS: target CLK4.

Like-named read-outs stand apart in the source and are kept apart here.

T5 sequence (O00238 14-502): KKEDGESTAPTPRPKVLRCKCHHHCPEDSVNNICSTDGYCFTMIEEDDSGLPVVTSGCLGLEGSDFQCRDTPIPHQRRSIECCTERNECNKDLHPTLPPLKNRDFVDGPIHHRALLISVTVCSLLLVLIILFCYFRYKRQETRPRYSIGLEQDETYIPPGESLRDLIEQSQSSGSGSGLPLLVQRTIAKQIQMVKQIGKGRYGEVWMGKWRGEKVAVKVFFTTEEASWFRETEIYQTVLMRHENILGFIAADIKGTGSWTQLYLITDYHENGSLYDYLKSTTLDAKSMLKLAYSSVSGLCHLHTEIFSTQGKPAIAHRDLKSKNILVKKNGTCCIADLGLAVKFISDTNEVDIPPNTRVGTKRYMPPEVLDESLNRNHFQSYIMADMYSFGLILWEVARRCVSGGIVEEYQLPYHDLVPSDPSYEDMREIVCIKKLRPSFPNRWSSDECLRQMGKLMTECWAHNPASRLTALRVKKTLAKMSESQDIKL
T2 sequence (Q76MJ5 35-926): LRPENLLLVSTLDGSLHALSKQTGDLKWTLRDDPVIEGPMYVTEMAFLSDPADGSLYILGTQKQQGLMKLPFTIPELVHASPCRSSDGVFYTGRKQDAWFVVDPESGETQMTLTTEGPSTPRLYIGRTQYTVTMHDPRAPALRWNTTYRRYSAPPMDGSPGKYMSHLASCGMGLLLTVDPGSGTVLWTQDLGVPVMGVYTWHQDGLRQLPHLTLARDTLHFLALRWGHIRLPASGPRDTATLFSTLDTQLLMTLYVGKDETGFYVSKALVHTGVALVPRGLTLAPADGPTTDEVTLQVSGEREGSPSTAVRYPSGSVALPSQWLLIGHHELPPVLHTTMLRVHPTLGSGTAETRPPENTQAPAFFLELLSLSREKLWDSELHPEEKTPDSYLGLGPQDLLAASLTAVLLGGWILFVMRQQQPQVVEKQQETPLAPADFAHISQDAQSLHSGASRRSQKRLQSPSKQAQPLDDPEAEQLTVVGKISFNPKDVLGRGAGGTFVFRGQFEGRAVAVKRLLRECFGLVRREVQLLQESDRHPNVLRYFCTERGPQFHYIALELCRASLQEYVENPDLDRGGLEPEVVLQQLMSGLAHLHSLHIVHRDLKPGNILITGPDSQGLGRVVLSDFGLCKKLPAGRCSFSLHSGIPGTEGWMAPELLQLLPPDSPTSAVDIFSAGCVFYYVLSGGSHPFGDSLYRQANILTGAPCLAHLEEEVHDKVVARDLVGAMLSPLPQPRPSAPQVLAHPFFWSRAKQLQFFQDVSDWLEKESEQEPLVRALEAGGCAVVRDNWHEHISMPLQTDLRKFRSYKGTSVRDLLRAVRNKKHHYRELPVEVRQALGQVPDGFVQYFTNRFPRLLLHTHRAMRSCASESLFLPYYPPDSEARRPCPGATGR
T6 sequence (Q9Y243 whole entry): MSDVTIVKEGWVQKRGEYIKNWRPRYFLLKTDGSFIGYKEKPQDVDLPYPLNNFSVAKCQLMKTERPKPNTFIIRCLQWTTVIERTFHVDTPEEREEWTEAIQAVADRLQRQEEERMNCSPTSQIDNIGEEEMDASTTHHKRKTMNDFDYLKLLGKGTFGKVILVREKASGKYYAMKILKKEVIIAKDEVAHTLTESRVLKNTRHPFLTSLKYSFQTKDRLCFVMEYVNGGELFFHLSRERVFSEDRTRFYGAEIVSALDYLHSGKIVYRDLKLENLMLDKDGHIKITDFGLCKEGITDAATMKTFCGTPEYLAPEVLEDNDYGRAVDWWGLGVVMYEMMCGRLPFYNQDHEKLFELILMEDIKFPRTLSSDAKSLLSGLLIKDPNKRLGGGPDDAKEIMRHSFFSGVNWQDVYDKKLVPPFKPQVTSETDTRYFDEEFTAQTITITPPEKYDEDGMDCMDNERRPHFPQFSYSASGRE

In the case of `CCN1CCN(Cc2ccc(Nc3ncc(F)c(-c4cc(F)c5nc(C)n(C(C)C)c5c4)n3)nc2)CC1` [Abemaciclib], the CATDS in test [1], in [2], in [3], in test [4], in test [5] and in test [6] was 0 in each case. Moreover, the CATDS in test [7], in [8], in test [9], in test [10], in [11] and in test [12] was 0 in each case. Moreover, the CATDS in test [13], in [14], in test [15], in test [16], in [17] and in [18] was 0 in each case. In addition, the CATDS in test [19] stood at 0; in [20], 0.08929.

In the case of `N#CC1(c2ccc(NC(=O)c3cccnc3NCc3ccncc3)cc2)CCCC1` [Apatinib], the CATDS in test [1], in test [2], in test [3], in test [4], in test [5] and in test [6] was 0 throughout. Also, the CATDS in [7], in test [8], in test [21], in test [9], in test [10] and in test [11] was 0 in each case. The CATDS in [12], in test [13], in test [14], in [15], in [16] and in test [17] was 0 throughout. Besides, the CATDS in test [18], in test [19] and in [20] was 0 in each case.

As for `CN(C)C/C=C/C(=O)Nc1cc2c(Nc3ccc(F)c(Cl)c3)ncnc2cc1O[C@H]1CCOC1` [Afatinib], the CATDS in test [5], in [6], in [7], in test [21], in test [9] and in test [11] was 0 in each case. Also, the CATDS in [17], in test [19] and in [20] was 0 throughout.

Take `C[C@]12O[C@H](C[C@]1(O)CO)n1c3ccccc3c3c4c(c5c6ccccc6n2c5c31)CNC4=O` [Lestaurtinib]: the potency estimated from few doses in test [21] (read-out: Lestaurtinib Drugmatrix value, Gene Name CLK4) is 0.0502 µM.

Take `Nc1ncnc2[nH]c(-c3ccccc3)nc12` [AH5015_KCGS]: the CATDS in test [1], in [2], in [3], in test [4], in test [5] and in test [6] was 0 in each case. Further, the CATDS in test [7], in test [8], in [21], in test [9], in [10] and in test [11] was 0 each time. The CATDS in [12], in test [13], in test [14], in [15], in test [16] and in test [17] was 0 throughout. Moreover, the CATDS in test [18] is reported as 0; in test [19], 0; in test [20] it was 0.1015. Moreover, the potency estimated from few doses in test [21] (Kinobeads two-dose, Drugmatrix - all 2, read-out: apparent Kd CLK4) was greater than 1 µM.

With `CCc1cc2c(cc1N1CCC(N3CCOCC3)CC1)C(C)(C)c1[nH]c3cc(C#N)ccc3c1C2=O` [Alectinib], the CATDS in test [1], in test [2], in [3], in [4], in test [5] and in test [6] was 0 throughout. The CATDS in [7], in [8], in test [21], in [9], in [10] and in test [11] was 0 throughout. Also, the CATDS in test [12], in test [13], in test [14], in [15], in test [16] and in test [17] was 0 throughout. The CATDS in test [18], in [19] and in test [20] was 0 in each case.

The values above are taken from article PMC11062922 (Nature Chemical Biology, 2023).
